In patent publication US6020374A, “Biologically active synthetic dye compounds” (priority 1998, dated 2000):
In brackets after ≈: the same amount, converted by molar mass.

Columns and labels:
Assay type in all cases: cell-based
MCF-7 cells = experiment: Cell death estimation, cycloheximide-exposed MCF-7 cells (trypan blue); details: for Effect on percent of dead cells: cells exposed to CX for 48 hours, compared with Control not exposed to CX
Protocol: Subconfluent cultures of MCF-7 cells in 35 mm dishes, were deprived of serum for 20 hours and then exposed to 30 μg/ml cycloheximide in the presence or absence of increasing concentrations of fractionated ATA, crude ATA or EB. After 48 hours, the cells were detached with trypsin. The medium and the detached cells were pooled and centrifuged at 1000×g for 10 mins. Cell viability was estimated by adding an equivalent volume of trypan blue solution to an aliquot of suspended cells. Stained and unstained cells were counted on a hemocytometer (10^3 cells were counted for each determination).
Subconfluent, 20 hours starved MCF-7 cells were exposed to 30 μg/ml
of cycloheximide in the presence of increasing
concentrations of fractionated ATA (0, 6, 12, 25, 50 μg/ml). After
48 hours, percent of dead cells was
determined as described under "Experimental procedures". In the
presence of cycloheximide only, 60-70% of
the cells were dead after 48 hours.
Cultures of […] cells were exposed to 30 μg CX for 48 hours in the presence of EB, ATA, IGF-1, or nothing.

IRS-2 = IRS-2 association with p85 of PI3-kinase in MCF-7 cells; details: 5 mins., ATA or EB 300 μg/ml, IGF-1 20 ng/ml
Protocol: FIG. 4 is the effect of ATA and EB on tyrosine phosphorylation of IRS-2: MCF-7 cells were treated as in FIG. 3. Total cell extracts, solubilized in Buffer C, were immunoprecipitated with an antibody to IRS-2. The immunocomplexes, precipitated with protein A-Sepharose beads were subjected to 7.5% SDS-PAGE, followed by immunoblotting with a phosphotyrosine antibody and an antibody to the 85-kDA subunit of PI3-kinase.
(§1) Cells were solubilized in Buffer A or C. Extracts were immunoprecipitated at 4° C. with antibodies to IRS-1, IRS-2, IGF-1 or IR receptor or Grb2, adsorbed on protein A-Sepharose beads. The immunocomplexes were pelleted by centrifugation at 12,000×g and washed twice with Buffer A, and twice with Buffer A containing 0.1% Triton x-100. The pellets were then suspended in Laemmli sample buffer and resolved on 7.5% SDS-PAGE.
(§2) Nitrocellulose blots of proteins were incubated with the antibodies, and proteins were detected by enhanced chemiluminescence using horseradish peroxidase-labeled protein A, horseradish peroxidase-labeled anti rabbit IgG or horseradish peroxidase-labeled anti-mouse IgG.
(§3) MCF-7 cells were stimulated with ATA, EB or IGF-1, solubilized and immunoprecipitated with anti IRS-1 or IRS-2 antibodies, separated by SDS-PAGE and immunoblotted with anti-phosphotyrosine antibody. […] The association of IRS-1 with Grb-2 was evaluated in lysates from treated cells which were immunoblotted with antibodies to either phosphotyrosine or IRS-1.

PI3-kinase = experiment: Anti-IRS-1 precipitable PI3-kinase activity in MCF-7 cells; details: 5 mins., ATA or EB 300 μg/ml
Protocol: FIG. 5 is the effect of ATA and EB on the anti-IRS-1 precipitable PI3-kinase activity: Cells were treated as in FIG. 3a. Anti-IRS-1 immunoprecipitates were washed and the pellets incubated with phosphatidyl inositol and γ^32 P-ATP.
Phosphorylation of phosphatidyl inositol was measured as follows. Cells were solubilized in Buffer C and the extracts immunoprecipitated at 4° C. with IRS-1 antibody and adsorbed onto protein A-Sepharose beads. The immunoprecipitates were washed three times with Buffer C and then washed once with Buffer B, Buffer E and Buffer F. The lipid kinase reaction was initated by addition of 100 μl sonicated phosphatidylinositol (10 μg) in kinase buffer (20 mM Hepes, pH 7.5, 10 mM MnCl2 and 10 mM MgCl2) containing 10 μCi [γ^32 P]ATP (3000 ci/m mol; Amersham). The reaction was performed at room temperature for 10 mins. and terminated by the addition of 100 μl 1 N HCl. Lipids were extracted by addition of 200 μl of a 1:1 mixture of chloroform/methanol, followed by vortexing and centrifugation at 14,000×g for 10 mins. The chloroform-containing lipid phase was then re-extracted with 150 μl of a 1:1 mixture of 1N HCl/methanol, followed by vortexing and centrifugation at 14,000×g for 10 mins. The 30 μl of the chloroform phase were resolved by thin layer chromatography using a chloroform/methanol/ammonium hydroxide (90:70:20 v/v)) running buffer. […]

IRS-1 = IRS-1 tyrosine phosphorylation and association with p85/Grb2 in MCF-7 cells; details: 5 mins., ATA or EB 300 μg/ml, IGF-1 20 ng/ml
Protocol: FIG. 3 is the effect of ATA and EB on tyrosine phosphorylation or IRS-1: MCF-7 cells grown in 100 mm dishes, were treated with ATA or EB, each at 300 μg/ml, or 20 ng/ml IGF-1 for 5 mins. Total cell extracts, solubilized in Buffer A, were subjected to immunoprecipitation with antibodies to IRS-1 (a) or Grb2 (b). The immunocomplexes, precipitated with protein G-Sepharose beads, were subjected to 7.5% SDS-PAGE followed by immunoblotting with a phosphotyrosine antibody, an antibody to the 85-kDa subunit of PI3-kinase or antibody to IRS-1.
as §1, §2, §3

[1] = system: 185 kDa protein(s) (p185); experiment: Tyrosine phosphorylation of p185 in MCF-7 cells (anti-phosphotyrosine immunoblot); details: MCF-7 cells; for Tyrosine phosphorylation of a 185 kDa protein(s): ATA, EB each at 300 μg/ml, IGF-1 at 20 ng/ml; for Exposure time at which p185 phosphorylation peaked: 300 μg/ml ATA, 30 μg/ml EB
Protocol: FIG. 1 is the effect of ATA and EB on tyrosine phosphorylation: MCF-7 cells, grown in 35 mm dishes were solubilized in Buffer A (a) or Buffer B (b-c). The solubilized cells were subjected to 7.5% SDS-PAGE and immunoblotted with an anti-phosphotyrosine antibody. (a) Cells treated for 5 mins. with ATA, EB, each at 300 μg/ml, IGF-1 at 20 ng/ml, or without additives (CON); (b) Cells treated with 300 μg/ml ATA for the indicated times; (c) Cells treated with 30 μg/ml EB for the indicated times; (d) Cells treated for 5 mins. with the indicated concentrations of ATA; (e) Cells treated for 5 mins. with the indicated concentrations of EB. Molecular mass markers (in kDa) are indicated on the right.
FIG. 2 is the effect of ATA and vanadate on the IGF-1 stimulated tyrosine phosphorylation of p185: A--Cells treated for 5 mins. with the indicated concentrations of IGF-1 in the presence or absence of 300 μg/ml ATA; B--Cells pre-incubated for 3 hours with or without 50 μM vanadate were incubated for 5 mins. with ATA, EB each at 300 μg/ml or with 10 ng/ml IGF-1 in the presence or absence of vanadate. Cytosols extracted in Buffer B were analyzed by immunoblotting with anti-phosphotyrosine antibody as in FIG. 1.
FIG. 8 is the effect of fractionated ATA on p185 phosphorylation: A--Crude ATA was separated on a Bio-Rad P-4 column and the combined void volume was then gel filtrated on a column of Bio-Rad P-10. The column was calibrated with the following molecular weight markers: DB-Dextran blue; CC-cytochrome C: Ins-insulin; B12-Vitamin B12. B--MCF-7 cells were incubated for 5 mins. with the indicated fractions of ATA (eluted from the P-10 column shown in A), crude ATA, each at 200 μg/ml or IGF-1 at 20 ng/ml. Cytosols, solubilized in Buffer B were subjected to 7.5% SDS-PAGE and immunoblotted with phosphotyrosine antibody.
MCF-7 cells were grown in 35 or 100 mm dishes in DMEM with 5% bovine fetal serum. Rat hepato FaO cells were grown in RPMI 1640 medium supplemented with 10% fetal calf serum. Subconfluent monolayers of MCF-7 cells or FaO cells, were deprived of serum for 20 hours prior to each experiment. The medium was removed, and cells were incubated at 37° C. under the conditions as indicated for each experiment. The reaction was terminated by removing the medium and freezing the monolayers with liquid nitrogen. In some experiments, cells were preincubated with 50 μM sodium orthovanadate for 3 hours.
Cells were solubilized at 4° C. with 0.2 ml/35 mm dish or 2 ml/100 mm dish of the indicated buffer. The solubilized cells were scraped and sedimented by centrifugation at 12,000×g for 30 mins. at 4° C. Aliquots of the supernatants were normalized for protein, mixed with concentrated (5×) Laemmli sample buffer, boiled for 10 mins. and resolved on 7.5 or 12% SDS-PAGE under reducing conditions.
as §2

Row | Compound | Percent dead cells (MCF-7 cells; 30 μg CX, 48 hours, ATA 100 μg/ml) [%] | IC50 (MCF-7 cells; Homo sapiens, MCF7, starved MCF-7 cells, 30 μg/ml cycloheximide, 48 hours, read-out: IC50, concentration which inhibits 50% of cell death induced by cycloheximide) [µg/mL] | Effect on percent of dead cells (MCF-7 cells) | Association of p85 subunit of PI3-k with IRS-2 (IRS-2) | PI3-kinase activity (anti-IRS-1 precipitable) (PI3-kinase) | Association of IRS-1 with Grb-2 (IRS-1) | Association of p85 subunit of PI3-k with IRS-1 (IRS-1) | Phosphorylation of IRS-1 (IRS-1) | Concentration of maximal p185 phosphorylation ([1]; 5 mins.) [µg/mL] | Effect on IGF-1 induced phosphorylation of the 185 kDa protein(s) ([1]; 5 mins., 300 μg/ml ATA with IGF-1) | pp185 (arbitrary units) ([1]; 5 mins., ATA fractions or crude ATA each at 200 μg/ml, scanned autoradiogram from FIG. 8B, Control 100) | Tyrosine phosphorylation of a 185 kDa protein(s) ([1]; 5 mins.) | Exposure time at which p185 phosphorylation peaked [1] [min]
1 | O=C(O)C1=CC(=C(c2ccc(O)c(C(=O)O)c2)c2ccc(O)c(C(=O)O)c2)C=CC1=O [ATA, Aurintricarboxylic acid] | 8 ± 3 | 18 (≈ 42.6 µM) | reduced the percent of dead cells to that observed in cells not exposed to CX | p85 precipitates | increases PI3-kinase activity similar to IGF-1 | IRS-1 co-precipitated with Grb2 | p85 precipitates with IRS-1 | stimulated the phosphorylation of IRS-1 | 300 to 400 | unaffected | 668 | enhanced tyrosine phosphorylation of a 185 kDa protein(s) | 2
2 | Cc1cc(-c2ccc(N=Nc3ccc4c(S(=O)(=O)O)cc(S(=O)(=O)O)c(N)c4c3O)c(C)c2)ccc1N=Nc1ccc2c(S(=O)(=O)O)cc(S(=O)(=O)O)c(N)c2c1O [EB, Evan's Blue] |  |  | reduced the percent of dead cells to that observed in cells not exposed to CX | p85 precipitates | increases PI3-kinase activity similar to IGF-1 | IRS-1 co-precipitated with Grb2 | p85 precipitates with IRS-1 | stimulated the phosphorylation of IRS-1 | 300 to 400 |  |  | enhanced tyrosine phosphorylation of a 185 kDa protein(s) | 5
